Consider 1 molecule from patent US12076341B2, “Use of apoptotic compensatory proliferation signaling vesicles in tissue repair and wound healing” (Rush University Medical Center, priority 2018, dated 2024).

Common to all, as to assay type: cell-based
In assay [1] the test system is Hela cells. As to the kind of experiment: IF time-lapse videomicroscopy of transfected Hela cells (apoptosis, vesicle formation, compensatory proliferation signaling). The following applies: cells pre-treated with Z-VAD prior to transfection.
In assay [2] the test system is human epithelial keratinocytes (HEK). As to the kind of experiment: Anoikis apoptosis, vesicle formation and CPS of HEK cells grown in suspension media. The following applies: 60 μm Z-VAD. How it is done:
HEK primary cells also product Crkl-containing vesicles which mediate CPS in other cells. (FIG. 8A) HEK cells were cultured either seeded (Mock) or induced to undergo anoikis apoptosis by culturing them in suspension media in the presence or absence of Z-VAD. (FIGS. 8A-8B) Supernatants from the indicated cultures were fractionated, as in FIG. 2, and their 16K fractions were evaluated for ACPSV production by Western blotting, using Crkl as a marker for vesicles, whose expression from 3 experiments was evaluated by densitometer and plotted below (FIG. 8A) or by lipid content measurements from 3 experiments in FIG. 8B. (n=3, * p≤ 0.05, ** p≤ 0.01, *** p≤ 0.001, one-way ANOVA). (FIG. 8C) ACPSVs in 16K fraction of apoptotic HEK cells were visualized by DIC. Similar to HeLa and B16 cells, vesicles from apoptotic HEK cells were globular and ranged between 1-1.8 micron in diameter. (FIG. 8D) HEK cells were treated with vesicles (16K fractions) harvested from HEK seeded healthy (Mock) cultures, or HEK grown in suspension media (Apop.), or HEK grown in suspension media in the presence of Z-VAD (Apop.+Z-VAD). 24 h after treatment, the proliferation levels were determined by cell counts and the tabulated data from 3 independent experiments were shown as the Mean±S.D. (** p<0.01, *** p≤ 0.001, one-way ANOVA). […]

For assay [3], the system named is Hela cells. As to the kind of experiment: Proliferation assay by cell counts, adherent Hela cells treated with 16K fraction vesicles. The following applies: 16K fraction of Z-VAD treated serum-starved Hela cells; cell count 24 h. How it is done:
Generation and Purification of ACPSVs: 7.5×10^6 cells were cultured in 150 mm^2 flasks (TPP) overnight in 25 mL of indicated media. Next day, cells were induced to undergo intrinsic apoptosis by serum-starvation, extrinsic apoptosis apoptosis by treatment with anti-Fas mAb (abcam-ab11881), or anoikis apoptosis by growing the cells detached from the surface in suspension media in Thermo Scientific Nunclon Sphera plates, in the presence or absence of Z-VAD. 24 to 48 h after induction of apoptosis, culture supernatants from serum-fed healthy (Mock) and apoptotic cells were collected and subjected to differential centrifugation. […] The proliferation-inducing effect associated with each fraction was determined by cell counts after growing recipient cells for 24 h at 37° C. in the presence of 5% CO2, using a hemocytometer after trypsin digestion.
Proliferation Assay. […] The next day at the time of treatment with vesicles, the initial cell number per well (0 h) was determined by trypsin digestion and cell counts using a hemocytometer. […] Proliferation rates were determined blindly by cell counts determination using a hemocytometer.

In assay [4] the test system is Hela cells. As to the kind of experiment: Apoptotic cell death of serum-starved Hela cells by flow cytometry. Conditions: Z-VAD pretreatment; 24 h serum starvation. How it is done:
(§1) (FIG. 2A) Hela cells either received 10% serum (Mock) or were induced to undergo apoptosis by serum-starvation in the presence or absence of Z-VAD. 24 h after serum starvation, apoptotic cell death was assessed by flow cytometry and the tabulated results from 3 independent experiments are shown in (FIG. 2B). (*** p<0.001, One-way ANOVA). (FIGS. 2C-21) Supernatants from the indicated cultures were fractionated by differential centrifugation and evaluated for their Crkl-containing microvesicles (ACPSVs) and CPS. (FIG. 2C) ACPSVs in the 16K fraction of apoptotic cells were visualized by DIC. (FIG. 2D) Vesicle size distribution was determined and plotted (Mean size±S.D.=1.76±1.04 μm, n=822). […] (FIG. 2H) The lipid contents of the vesicles in the 16K fractions of the indicated cultures were measured and the tabulated data from 3 experiments are shown. […] (FIG. 2I) Hela cells were treated with 16K fractions of serum-fed healthy (Mock), serum-starved apoptotic (Apop.), or Z-VAD treated serum-starved (Apop.+Z-VAD) and the proliferation levels were determined by cell count 24 h after treatment. […] 24 h after serum starvation, cells were fixed and analyzed by SEM. […] Five hours after vesicle addition, the fractions of mitotic cells, with no vesicle (NV); with ACPSV only (+AC); with apoptotic body only (+AB); or with a combination of vesicles (+Mix) were assessed by SEM. […]
On the technique in general: In flow cytometry, cells or beads pass a laser one at a time.

Assay [5] relates to Hela cells. As to the kind of experiment: Vesicle production in 16K fraction of serum-starved Hela cells (Crkl Western blot, lipid content). The following applies: Z-VAD pretreatment; Crkl level and lipid content of 16K fraction. On the procedure:
as §1

Entries after “also recorded” stand apart in the source; their conditions may differ. Where a SMILES comes first, the peptide text is derived from it. The star is where a group is joined. Cbz = O=C(OCc1ccccc1)*; CH2F = FC*

`CC(NC(=O)C(NC(=O)OCc1ccccc1)C(C)C)C(=O)NC(CC(=O)O)C(=O)CF` (stereo not drawn) [Z-VAD] (Cbz-Val-Ala-Asp-CH2F; configuration not given here): in the assay with Hela cells [1], the “ACPSV formation and release from Crkl-GFP transfected Hela cells” value is “inhibits apoptosis and vesicle formation; also recorded: not formed or released”. In addition, in assay [2], the “apoptosis in HEK cells grown in suspension media” value is “significantly reduced”; the “vesicle formation and CPS in HEK cells grown in suspension media” value is “prevented”. The “CPS in recipient cells” value in the assay on Hela cells [3] was “abrogated”. Moreover, the “apoptosis in serum-starved Hela cells” value in the assay on Hela cells [4] is reported as “significantly reduced”. For the same molecule, the “vesicle production in serum-starved cells” value in the assay on Hela cells [5] is listed as “significantly reduced”.
